In patent US11077090B2, “Compounds and compositions and uses thereof” (Sunovion Pharmaceuticals Inc., priority 2016, dated 2021):
Counter-ions that a name gives are not always drawn.

test system: compound-treated mice; assay: Neuropharmacological assay (SmartCube): behavioral activity signature and minimal effective dose; type: in vivo; conditions: MED = dose having 50% or more total activity, hydrochloride
From the text: Neurosci. 2011 Sep. 9; 5:103 (doi: 10.3389/fnins.2011.00103) (“Roberds”). As reported in Roberds, because psychiatric diseases generally result from disorders of cell-cell communication or circuitry, intact systems are useful in detecting improvement in disease-relevant endpoints. These endpoints are typically behavioral in nature, often requiring human observation and interpretation. To facilitate testing of multiple compounds for behavioral effects relevant to psychiatric disease, PsychoGenics, Inc. (Tarrytown, N.Y., “PGI”) developed SmartCube™, an automated system in which behaviors of compound-treated mice are captured by digital video and analyzed with computer algorithms. (D. Brunner et al., Drug Discov. Today 2002, 7:S107-S112). PGI Analytical Systems uses data from SmartCube™ to compare the behavioral signature of a test compound to a database of behavioral signatures obtained using a large set of diverse reference compounds. (The composition of the database as well as validation of the method is further described in Roberds). In this way, the neuropharmacological effects of a test compound can be predicted by similarity to major classes of compounds, such as antipsychotics, anxiolytics and antidepressants.
The SmartCube™ system produces an activity signature indicating the probability that the activity of the test compound at the administered dose matches a given class of neuropharmacological agents. (See, e.g., Roberds, FIGS. 2 and 3). The test compound is simultaneously compared against multiple classes of agents; thus, a separate probability is generated for each behavioral effect measured (e.g., anxiolytic activity, analgesic activity, etc.). In the table below, these probabilities are reported for each behavioral effect measured as follows:
where LOQ is the limit of quantification.
Provided compounds were dissolved in a mixture of Pharmasolve™ (N-methyl-2-pyrrolidone), polyethylene glycol and propylene glycol, and were injected i.p. 15 min. before the behavioral test. For each compound, injections were administered at 3 different doses. For each behavioral effect measured, results for the most efficacious dose(s) are presented. In the table below, DP: anti-depressant; AX: anxiolytic; SD: sedative hypnotic; PS: anti-psychotic; MS: mood stabilizer; AD: ADHD; CE: cognitive enhancer; AG: analgesic; UN: uncharacterized CNS activity.
The potency of many of the compounds in the table was also determined in the SmartCube™ system. Test compounds were routinely examined at dose levels of 0.3, 1, 3, 10 and 30 mg per kg (mpk), although the dose range was increased or decreased if necessary to obtain a full dose response curve. A compound's minimal effective dose (MED) is a measure of the compounds potency. The MED was defined as the dose (in mpk) having 50% or more total activity in SmartCube.

SMILES | Potency: minimal effective dose (MED), binned
CC(C)[C@@H]1OCc2ccccc2[C@H]1N.Cl (relative stereo) [Example 274, trans-3-Isopropylisochroman-4-amine hydrochloride] | A (≤3 mpk)

same assay, conditions: Mus musculus, ip, MED = dose having 50% or more total activity, read-out: Potency: minimal effective dose (MED)

SMILES | minimal effective dose [mg/kg]
C[C@@H]1OC[C@@H](N)c2ccccc21.Cl (relative stereo) [Example 105, trans-1-Methylisochroman-4-amine hydrochloride] | 10 to 30
C[C@H]1OCc2ccc3ccccc3c2[C@@H]1N.Cl (single isomer, unassigned) [Example 90] | 10 to 30
C[C@@H]1OCc2ccc3ccccc3c2[C@@H]1N.Cl (single isomer, unassigned) [Example 91] | 10 to 30
N[C@H]1COCc2ccccc21 (single isomer, unassigned) [Example 112] | 10 to 30
N[C@@H]1COCc2ccc(F)cc21 (single isomer, unassigned) [Example 113] | 3 to 10

same assay, conditions: Mus musculus, ip, MED = dose having 50% or more total activity, read-out: Potency: minimal effective dose (MED), binned

SMILES | minimal effective dose [mg/kg]
CN[C@@H]1CO[C@@H](C)c2ccccc21 (relative stereo) [Example 236, trans-N,1-dimethylisochroman-4-amine hydrochloride] | 3 to 10
CN[C@@H]1CO[C@H](C)c2ccccc21 (relative stereo) [Example 240, cis-N,1-dimethylisochroman-4-amine hydrochloride] | 3 to 10
CC(C)[C@@H]1OCc2ccccc2[C@@H]1N (relative stereo) [Example 256, cis-3-Isopropylisochroman-4-amine hydrochloride] | 3 to 10
CC(C)[C@@H]1OCc2ccccc2[C@H]1N.Cl (relative stereo) [Example 257, trans-3-Isopropylisochroman-4-amine hydrochloride] | 3 to 10
Cl.N[C@H]1c2ccccc2CO[C@H]1CF (relative stereo) [Example 275, cis-3-(fluoromethyl)isochroman-4-amine hydrochloride] | 3 to 10

same assay, conditions: i.p. 15 min before test, most efficacious dose(s)

SMILES | AD: ADHD (probability of activity signature) | AG: analgesic (probability of activity signature) | AX: anxiolytic (probability of activity signature) | CE: cognitive enhancer (probability of activity signature) | DP: anti-depressant (probability of activity signature) | MS: mood stabilizer (probability of activity signature) | PS: anti-psychotic (probability of activity signature) | SD: sedative hypnotic (probability of activity signature) | UN: uncharacterized CNS activity (probability of activity signature)
C[C@@H]1OC[C@@H](N)c2ccccc21.Cl (relative stereo) [Example 105, trans-1-Methylisochroman-4-amine hydrochloride] | + (LOQ ≤ + <5%) | ++ (5% ≤ ++ <25%) | ++ (5% ≤ ++ <25%) | ++ (5% ≤ ++ <25%) | ++ (5% ≤ ++ <25%) | ++ (5% ≤ ++ <25%) | ++ (5% ≤ ++ <25%) | + (LOQ ≤ + <5%) | +++ (25% ≤ +++ <50%)
CN[C@@H]1CO[C@@H](C)c2ccccc21 (relative stereo) [Example 236, trans-N,1-dimethylisochroman-4-amine hydrochloride] | + (LOQ ≤ + <5%) | ++ (5% ≤ ++ <25%) | ++ (5% ≤ ++ <25%) | + (LOQ ≤ + <5%) | ++ (5% ≤ ++ <25%) | + (LOQ ≤ + <5%) | ++ (5% ≤ ++ <25%) | + (LOQ ≤ + <5%) | ++++ (50% ≤ ++++)
CN[C@@H]1CO[C@H](C)c2ccccc21 (relative stereo) [Example 240, cis-N,1-dimethylisochroman-4-amine hydrochloride] | + (LOQ ≤ + <5%) | ++ (5% ≤ ++ <25%) | ++ (5% ≤ ++ <25%) | ++ (5% ≤ ++ <25%) | ++ (5% ≤ ++ <25%) | + (LOQ ≤ + <5%) | ++ (5% ≤ ++ <25%) | ++ (5% ≤ ++ <25%) | +++ (25% ≤ +++ <50%)
CC(C)[C@@H]1OCc2ccccc2[C@@H]1N (relative stereo) [Example 256, cis-3-Isopropylisochroman-4-amine hydrochloride] | ++ (5% ≤ ++ <25%) | + (LOQ ≤ + <5%) | ++ (5% ≤ ++ <25%) | + (LOQ ≤ + <5%) | + (LOQ ≤ + <5%) | ++ (5% ≤ ++ <25%) | +++ (25% ≤ +++ <50%) | ++ (5% ≤ ++ <25%) | ++ (5% ≤ ++ <25%)
CC(C)[C@@H]1OCc2ccccc2[C@H]1N.Cl (relative stereo) [Example 257, trans-3-Isopropylisochroman-4-amine hydrochloride] | + (LOQ ≤ + <5%) | + (LOQ ≤ + <5%) | + (LOQ ≤ + <5%) | + (LOQ ≤ + <5%) | ++ (5% ≤ ++ <25%) |  | ++ (5% ≤ ++ <25%) |  | ++ (5% ≤ ++ <25%)
CC(C)[C@@H]1OCc2ccccc2[C@H]1N.Cl (relative stereo) [Example 274, trans-3-Isopropylisochroman-4-amine hydrochloride] | + (LOQ ≤ + <5%) | + (LOQ ≤ + <5%) | + (LOQ ≤ + <5%) | + (LOQ ≤ + <5%) | ++ (5% ≤ ++ <25%) |  | ++ (5% ≤ ++ <25%) |  | ++ (5% ≤ ++ <25%)
Cl.N[C@H]1c2ccccc2CO[C@H]1CF (relative stereo) [Example 275, cis-3-(fluoromethyl)isochroman-4-amine hydrochloride] | + (LOQ ≤ + <5%) | + (LOQ ≤ + <5%) | + (LOQ ≤ + <5%) | + (LOQ ≤ + <5%) | + (LOQ ≤ + <5%) | ++ (5% ≤ ++ <25%) | + (LOQ ≤ + <5%) | +++ (25% ≤ +++ <50%) | ++ (5% ≤ ++ <25%)
C[C@H]1OCc2ccc3ccccc3c2[C@@H]1N.Cl (single isomer, unassigned) [Example 90] | + (LOQ ≤ + <5%) | ++ (5% ≤ ++ <25%) | +++ (25% ≤ +++ <50%) | ++ (5% ≤ ++ <25%) | ++ (5% ≤ ++ <25%) | + (LOQ ≤ + <5%) | + (LOQ ≤ + <5%) | ++ (5% ≤ ++ <25%) | + (LOQ ≤ + <5%)
C[C@@H]1OCc2ccc3ccccc3c2[C@@H]1N.Cl (single isomer, unassigned) [Example 91] | + (LOQ ≤ + <5%) | ++ (5% ≤ ++ <25%) | + (LOQ ≤ + <5%) | ++ (5% ≤ ++ <25%) | + (LOQ ≤ + <5%) | + (LOQ ≤ + <5%) | ++ (5% ≤ ++ <25%) | ++ (5% ≤ ++ <25%) | +++ (25% ≤ +++ <50%)
N[C@H]1COCc2ccccc21 (single isomer, unassigned) [Example 112] | + (LOQ ≤ + <5%) | ++ (5% ≤ ++ <25%) | ++ (5% ≤ ++ <25%) | +++ (25% ≤ +++ <50%) | ++ (5% ≤ ++ <25%) | + (LOQ ≤ + <5%) | ++ (5% ≤ ++ <25%) | + (LOQ ≤ + <5%) | + (LOQ ≤ + <5%)
N[C@@H]1COCc2ccc(F)cc21 (single isomer, unassigned) [Example 113] | + (LOQ ≤ + <5%) | ++ (5% ≤ ++ <25%) | ++ (5% ≤ ++ <25%) | ++ (5% ≤ ++ <25%) | ++ (5% ≤ ++ <25%) | + (LOQ ≤ + <5%) | ++ (5% ≤ ++ <25%) | + (LOQ ≤ + <5%) | +++ (25% ≤ +++ <50%)

same assay, conditions: i.p. 15 min before test, most efficacious dose(s), hydrochloride

SMILES | MS: mood stabilizer (probability of activity signature) | SD: sedative hypnotic (probability of activity signature)
CC(C)[C@@H]1OCc2ccccc2[C@H]1N.Cl (relative stereo) [Example 257, trans-3-Isopropylisochroman-4-amine hydrochloride] | ++ (5% ≤ ++ <25%) | +++ (25% ≤ +++ <50%)
CC(C)[C@@H]1OCc2ccccc2[C@H]1N.Cl (relative stereo) [Example 274, trans-3-Isopropylisochroman-4-amine hydrochloride] | +++ (25% ≤ +++ <50%) | ++ (5% ≤ ++ <25%)
